Data published in ChEMBL document CHEMBL3588753, “Recent progress in the drug development of coumarin derivatives as potent antituberculosis agents” (2015).
Converted amounts (≈) assume the structure as drawn.

test system: Mycobacterium tuberculosis variant bovis; test: Antimycobacterial activity against Mycobacterium bovis; format: functional

| Compound | MIC |
| --- | --- |
| O=C(OCc1ccc(F)cc1)C1C(=O)Oc2ccc(Br)cc2C1C(=O)NC1CCCCC1 (stereo not drawn) | 15.6 µg/mL (≈ 30.9 µM) |
| COC(=O)C1C(=O)Oc2ccc(Br)cc2C1C(=O)NC1CCCCC1 (stereo not drawn) | 15.6 µg/mL (≈ 38 µM) |
| CC(C)COC(=O)C1C(=O)Oc2ccccc2C1C(=O)NC1CCCCC1 (stereo not drawn) | 15.6 µg/mL (≈ 41.8 µM) |
